Assays:
Assay in all cases: full kinase panel biochemical assay
ACK1 = ACK1 (Homo sapiens, UniProt Q07912); conditions: single concentration of 1 μM; read-out: percent inhibition of ACK1
Experimental: (§1) In order to measure the protein kinase inhibitory activity (% inhibition) of the compound of the present invention, biochemical assay was performed in the full kinase panel. As a test compound, Compound No. 4 was used. The percent inhibition of each kinase when treated with the test compound at a single concentration of 1 μM was measured, and the residual enzyme activity values (%) of the kinases were calculated. Kinases whose calculated residual enzyme activity values (%) was 30% or less (i.e., kinases inhibited by 70% or more) are as follows: ABL1, ABL2/ARG, ACK1, ARAF, BLK, BMX/ETK, BRAF, BRK, BTK, c-Kit, c-Src, CSK, DDR1, DDR2, EPHA1, EPHA2, EPHA3, EPHA4, EPHA5, EPHA6, EPHA7, EPHA8, EPHB1, EPHB2, EPHB3, EPHB4, ERBB2/HER2, ERBB4/HER4, FGFR1, FGFR2, FGFR3, FGR, FLT1/VEGFR1, FLT4/VEGFR3, FMS, FRK/PTK5, FYN, GCK/MAP4K2, HCK, HGK/MAP4K4, JAK1, JAK2, KDR/VEGFR2, KHS/MAP4K5, LCK, LYN, LYN B, MEKK1, MLK4, MYLK3, NEK5, P38a/MAPK14, P38b/MAPK11, PDGFRa, PDGFRb, PEAK1, RET, RIPK2, RIPK4, SIK2, SRPK1, TAOK3/JIK, TLK1, TNK1, TXK, TYK2, YES/YES1, YSK4/MAP3K19, and ZAK/MLTK.

BRK = BRK (Homo sapiens, UniProt Q13882); conditions: single concentration of 1 μM; read-out: percent inhibition of BRK
Experimental: as §1

DDR1 = DDR1 (Homo sapiens, UniProt Q08345); conditions: single concentration of 1 μM; read-out: percent inhibition of DDR1
Experimental: as §1

EPHA3 = EPHA3 (Homo sapiens, UniProt P29320); conditions: single concentration of 1 μM; read-out: percent inhibition of EPHA3
Experimental: as §1

EPHA5 = EPHA5 (Homo sapiens, UniProt P54756); conditions: single concentration of 1 μM; read-out: percent inhibition of EPHA5
Experimental: as §1

EPHA8 = EPHA8 (Homo sapiens, UniProt P29322); conditions: single concentration of 1 μM; read-out: percent inhibition of EPHA8
Experimental: as §1

EPHB1 = EPHB1 (Homo sapiens, UniProt P54762); conditions: single concentration of 1 μM; read-out: percent inhibition of EPHB1
Experimental: as §1

EPHB2 = EPHB2 (Homo sapiens, UniProt P29323); conditions: single concentration of 1 μM; read-out: percent inhibition of EPHB2
Experimental: as §1

EPHB4 = EPHB4 (Homo sapiens, UniProt P54760); conditions: single concentration of 1 μM; read-out: percent inhibition of EPHB4
Experimental: as §1

FGFR1 = FGFR1 (Homo sapiens, UniProt P11362); conditions: single concentration of 1 μM; read-out: percent inhibition of FGFR1
Experimental: as §1

FGR = FGR (Homo sapiens, UniProt P09769); conditions: single concentration of 1 μM; read-out: percent inhibition of FGR
Experimental: as §1

HCK = HCK (Homo sapiens, UniProt P08631); conditions: single concentration of 1 μM; read-out: percent inhibition of HCK
Experimental: as §1

HGK/MAP4K4 = HGK/MAP4K4 (Homo sapiens, UniProt O95819); conditions: single concentration of 1 μM; read-out: percent inhibition of HGK/MAP4K4
Experimental: as §1

JAK1 = JAK1 (Homo sapiens, UniProt P23458); conditions: single concentration of 1 μM; read-out: percent inhibition of JAK1
Experimental: as §1

KDR/VEGFR2 = KDR/VEGFR2 (Homo sapiens, UniProt P35968); conditions: single concentration of 1 μM; read-out: percent inhibition of KDR/VEGFR2
Experimental: as §1

KHS/MAP4K5 = KHS/MAP4K5 (Homo sapiens, UniProt Q9Y4K4); conditions: single concentration of 1 μM; read-out: percent inhibition of KHS/MAP4K5
Experimental: as §1

LCK = LCK (Homo sapiens, UniProt P06239); conditions: single concentration of 1 μM; read-out: percent inhibition of LCK
Experimental: as §1

P38a/MAPK14 = P38a/MAPK14 (Homo sapiens, UniProt Q16539); conditions: single concentration of 1 μM; read-out: percent inhibition of P38a/MAPK14
Experimental: as §1

SRPK1 = SRPK1 (Homo sapiens, UniProt Q96SB4); conditions: single concentration of 1 μM; read-out: percent inhibition of SRPK1
Experimental: as §1

TAOK3/JIK = TAOK3/JIK (Homo sapiens, UniProt Q9H2K8); conditions: single concentration of 1 μM; read-out: percent inhibition of TAOK3/JIK
Experimental: as §1

TLK1 = TLK1 (Homo sapiens, UniProt Q9UKI8); conditions: single concentration of 1 μM; read-out: percent inhibition of TLK1
Experimental: as §1

TXK = TXK (Homo sapiens, UniProt P42681); conditions: single concentration of 1 μM; read-out: percent inhibition of TXK
Experimental: as §1

TYK2 = TYK2 (Homo sapiens, UniProt P29597); conditions: single concentration of 1 μM; read-out: percent inhibition of TYK2
Experimental: as §1

c-Src = c-Src (Homo sapiens, UniProt P12931); conditions: single concentration of 1 μM; read-out: percent inhibition of c-Src
Experimental: as §1

Measured: inhibition at 1 µM

KHS/MAP4K5, sequence (Q9Y4K4 whole entry): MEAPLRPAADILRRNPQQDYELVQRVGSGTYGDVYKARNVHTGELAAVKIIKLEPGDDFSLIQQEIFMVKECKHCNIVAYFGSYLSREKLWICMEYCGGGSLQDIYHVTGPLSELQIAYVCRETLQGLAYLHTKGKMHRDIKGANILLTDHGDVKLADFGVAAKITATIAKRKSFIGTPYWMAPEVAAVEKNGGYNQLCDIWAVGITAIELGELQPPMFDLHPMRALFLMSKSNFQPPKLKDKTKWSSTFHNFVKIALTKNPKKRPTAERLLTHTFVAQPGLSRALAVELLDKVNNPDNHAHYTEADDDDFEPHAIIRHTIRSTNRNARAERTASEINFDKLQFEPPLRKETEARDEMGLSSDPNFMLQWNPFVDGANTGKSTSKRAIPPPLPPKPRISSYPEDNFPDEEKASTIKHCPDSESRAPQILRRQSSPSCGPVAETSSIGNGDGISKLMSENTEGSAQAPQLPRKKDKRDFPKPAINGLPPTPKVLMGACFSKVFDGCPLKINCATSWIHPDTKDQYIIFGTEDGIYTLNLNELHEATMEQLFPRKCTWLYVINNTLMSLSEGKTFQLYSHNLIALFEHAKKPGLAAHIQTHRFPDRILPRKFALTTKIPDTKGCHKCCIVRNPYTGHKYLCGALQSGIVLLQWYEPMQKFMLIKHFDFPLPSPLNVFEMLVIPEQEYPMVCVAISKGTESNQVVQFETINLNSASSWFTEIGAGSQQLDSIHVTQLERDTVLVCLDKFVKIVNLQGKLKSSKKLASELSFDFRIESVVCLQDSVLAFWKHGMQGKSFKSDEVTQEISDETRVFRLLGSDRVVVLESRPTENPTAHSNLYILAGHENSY
EPHA3, sequence (P29320 21-983): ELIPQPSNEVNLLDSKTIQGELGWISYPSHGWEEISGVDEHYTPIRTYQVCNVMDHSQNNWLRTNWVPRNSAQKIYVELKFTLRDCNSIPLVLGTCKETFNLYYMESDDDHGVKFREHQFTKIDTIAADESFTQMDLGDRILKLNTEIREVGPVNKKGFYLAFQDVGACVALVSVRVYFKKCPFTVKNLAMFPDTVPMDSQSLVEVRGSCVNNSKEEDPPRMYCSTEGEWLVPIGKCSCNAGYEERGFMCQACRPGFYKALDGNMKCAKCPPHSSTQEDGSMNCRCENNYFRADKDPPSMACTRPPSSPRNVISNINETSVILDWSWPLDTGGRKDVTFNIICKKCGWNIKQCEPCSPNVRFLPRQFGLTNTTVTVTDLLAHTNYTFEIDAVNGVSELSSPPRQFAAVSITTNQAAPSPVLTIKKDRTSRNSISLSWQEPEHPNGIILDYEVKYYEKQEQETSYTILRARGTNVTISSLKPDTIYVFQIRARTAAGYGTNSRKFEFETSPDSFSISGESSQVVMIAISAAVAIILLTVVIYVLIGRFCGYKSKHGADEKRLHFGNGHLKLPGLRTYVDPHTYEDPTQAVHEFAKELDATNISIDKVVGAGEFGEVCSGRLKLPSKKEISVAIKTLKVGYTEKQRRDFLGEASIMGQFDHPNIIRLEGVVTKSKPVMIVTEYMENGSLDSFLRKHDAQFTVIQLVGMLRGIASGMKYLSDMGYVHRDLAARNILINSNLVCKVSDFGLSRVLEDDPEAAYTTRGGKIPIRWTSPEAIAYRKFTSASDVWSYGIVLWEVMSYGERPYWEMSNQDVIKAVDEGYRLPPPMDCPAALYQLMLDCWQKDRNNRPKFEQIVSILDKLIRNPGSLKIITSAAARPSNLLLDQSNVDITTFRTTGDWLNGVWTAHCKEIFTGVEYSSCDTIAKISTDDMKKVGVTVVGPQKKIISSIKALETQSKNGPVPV
EPHB1, sequence (P54762 18-984): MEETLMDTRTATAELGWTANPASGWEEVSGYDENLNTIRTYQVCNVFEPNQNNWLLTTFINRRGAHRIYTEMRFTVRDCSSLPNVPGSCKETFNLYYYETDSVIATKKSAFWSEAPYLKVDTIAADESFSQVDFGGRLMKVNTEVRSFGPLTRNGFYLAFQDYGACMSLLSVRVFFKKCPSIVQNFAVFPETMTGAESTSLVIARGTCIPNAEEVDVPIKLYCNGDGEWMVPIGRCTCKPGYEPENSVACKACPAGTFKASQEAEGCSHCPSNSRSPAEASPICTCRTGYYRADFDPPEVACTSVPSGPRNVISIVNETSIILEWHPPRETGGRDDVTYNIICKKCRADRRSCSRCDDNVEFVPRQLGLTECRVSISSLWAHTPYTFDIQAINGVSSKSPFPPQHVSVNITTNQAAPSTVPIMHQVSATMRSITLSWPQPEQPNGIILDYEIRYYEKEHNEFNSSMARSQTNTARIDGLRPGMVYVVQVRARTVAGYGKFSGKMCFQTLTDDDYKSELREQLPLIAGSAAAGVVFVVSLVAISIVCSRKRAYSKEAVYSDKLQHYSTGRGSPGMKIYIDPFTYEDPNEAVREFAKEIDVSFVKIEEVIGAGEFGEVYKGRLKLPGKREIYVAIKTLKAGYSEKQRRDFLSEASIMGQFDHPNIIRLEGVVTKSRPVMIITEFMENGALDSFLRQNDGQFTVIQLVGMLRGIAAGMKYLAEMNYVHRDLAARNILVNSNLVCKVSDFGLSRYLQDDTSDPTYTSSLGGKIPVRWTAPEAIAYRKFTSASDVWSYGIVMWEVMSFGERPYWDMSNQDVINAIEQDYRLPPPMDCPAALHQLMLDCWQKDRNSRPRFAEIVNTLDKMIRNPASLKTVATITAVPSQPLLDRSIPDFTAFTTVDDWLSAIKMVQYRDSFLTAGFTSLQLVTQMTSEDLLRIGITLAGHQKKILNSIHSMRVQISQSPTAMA
c-Src, sequence (P12931 whole entry): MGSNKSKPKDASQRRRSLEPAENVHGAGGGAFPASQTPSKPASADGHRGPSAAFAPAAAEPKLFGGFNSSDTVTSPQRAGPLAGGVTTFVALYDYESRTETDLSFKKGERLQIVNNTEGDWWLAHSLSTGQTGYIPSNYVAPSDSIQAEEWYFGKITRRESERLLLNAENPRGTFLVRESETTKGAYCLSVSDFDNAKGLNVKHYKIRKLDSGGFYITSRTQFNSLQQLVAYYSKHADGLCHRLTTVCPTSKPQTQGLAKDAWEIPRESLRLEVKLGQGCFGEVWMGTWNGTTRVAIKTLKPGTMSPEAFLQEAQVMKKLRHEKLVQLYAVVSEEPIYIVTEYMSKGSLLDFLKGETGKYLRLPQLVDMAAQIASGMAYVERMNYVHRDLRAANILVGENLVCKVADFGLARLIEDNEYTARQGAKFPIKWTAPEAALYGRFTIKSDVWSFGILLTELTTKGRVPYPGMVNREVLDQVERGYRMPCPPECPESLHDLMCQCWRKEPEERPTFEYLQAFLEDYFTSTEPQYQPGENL
EPHB2, sequence (P29323 19-1055): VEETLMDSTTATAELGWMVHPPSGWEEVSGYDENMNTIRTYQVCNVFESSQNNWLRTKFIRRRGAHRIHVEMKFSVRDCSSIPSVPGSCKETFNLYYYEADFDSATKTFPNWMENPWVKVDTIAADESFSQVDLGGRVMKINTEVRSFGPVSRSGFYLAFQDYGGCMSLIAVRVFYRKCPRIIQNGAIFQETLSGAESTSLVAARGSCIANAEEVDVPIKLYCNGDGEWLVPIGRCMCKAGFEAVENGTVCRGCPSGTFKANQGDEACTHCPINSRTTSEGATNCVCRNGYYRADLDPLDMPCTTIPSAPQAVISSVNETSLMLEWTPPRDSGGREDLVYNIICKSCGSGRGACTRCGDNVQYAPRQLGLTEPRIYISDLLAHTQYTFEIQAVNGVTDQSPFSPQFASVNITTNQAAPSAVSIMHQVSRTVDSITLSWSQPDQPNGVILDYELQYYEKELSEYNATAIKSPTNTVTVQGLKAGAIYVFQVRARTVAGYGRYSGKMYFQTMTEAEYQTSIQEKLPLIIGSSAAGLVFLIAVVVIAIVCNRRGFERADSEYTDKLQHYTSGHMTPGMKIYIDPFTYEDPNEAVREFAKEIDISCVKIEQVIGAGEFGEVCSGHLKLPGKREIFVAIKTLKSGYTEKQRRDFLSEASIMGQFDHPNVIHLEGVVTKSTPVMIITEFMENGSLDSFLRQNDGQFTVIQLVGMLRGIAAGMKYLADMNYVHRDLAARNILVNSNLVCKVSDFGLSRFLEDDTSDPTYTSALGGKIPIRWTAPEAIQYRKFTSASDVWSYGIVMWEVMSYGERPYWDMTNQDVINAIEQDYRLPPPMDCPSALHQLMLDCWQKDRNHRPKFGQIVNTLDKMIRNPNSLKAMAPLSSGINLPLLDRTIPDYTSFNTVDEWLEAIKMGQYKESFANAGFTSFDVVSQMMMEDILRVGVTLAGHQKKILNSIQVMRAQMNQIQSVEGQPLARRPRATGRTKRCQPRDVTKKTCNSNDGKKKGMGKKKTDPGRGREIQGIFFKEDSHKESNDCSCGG
SRPK1, sequence (Q96SB4 whole entry): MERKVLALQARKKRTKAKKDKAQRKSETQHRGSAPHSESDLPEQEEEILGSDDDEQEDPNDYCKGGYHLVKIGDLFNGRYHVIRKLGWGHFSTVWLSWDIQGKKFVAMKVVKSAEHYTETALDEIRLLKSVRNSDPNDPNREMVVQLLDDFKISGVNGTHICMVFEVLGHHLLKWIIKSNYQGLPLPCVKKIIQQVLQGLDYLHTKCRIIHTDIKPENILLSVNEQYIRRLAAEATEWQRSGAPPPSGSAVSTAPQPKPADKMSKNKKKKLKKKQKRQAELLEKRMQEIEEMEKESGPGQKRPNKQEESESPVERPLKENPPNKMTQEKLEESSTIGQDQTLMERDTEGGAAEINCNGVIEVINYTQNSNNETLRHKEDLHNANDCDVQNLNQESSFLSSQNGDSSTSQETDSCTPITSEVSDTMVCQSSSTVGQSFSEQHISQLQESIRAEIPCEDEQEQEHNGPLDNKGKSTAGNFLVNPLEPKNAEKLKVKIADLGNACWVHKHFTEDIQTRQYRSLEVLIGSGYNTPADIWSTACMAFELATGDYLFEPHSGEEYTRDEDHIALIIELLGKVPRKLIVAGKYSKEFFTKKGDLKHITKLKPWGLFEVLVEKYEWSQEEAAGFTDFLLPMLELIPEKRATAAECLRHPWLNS

Cc1ccc(Nc2ncc3cc(-c4cc(NC(=O)c5cccc(C(F)(F)F)c5)ccc4C)ncc3n2)cn1 [Compound No. 4, N-(4-methyl-3-(2-((6-methylpyridin-3-yl)amino)pyrido[3,4-d]pyrimidin-6-yl)phenyl)-3-(trifluoromethyl)benzamide]
≥ 70%: all assays above
